Experimental findings from ChEMBL document CHEMBL1795203, “Synthesis and evaluation of highly potent GABA(A) receptor antagonists based on gabazine (SR-95531)” (Bioorg Med Chem Lett, 2011) are described below.

This experiment deals with T1, GABA-A receptor; alpha-1/beta-2/gamma-2 (Homo sapiens, UniProt P14867+P18507+P47870).
T1 sequence (P14867 whole entry): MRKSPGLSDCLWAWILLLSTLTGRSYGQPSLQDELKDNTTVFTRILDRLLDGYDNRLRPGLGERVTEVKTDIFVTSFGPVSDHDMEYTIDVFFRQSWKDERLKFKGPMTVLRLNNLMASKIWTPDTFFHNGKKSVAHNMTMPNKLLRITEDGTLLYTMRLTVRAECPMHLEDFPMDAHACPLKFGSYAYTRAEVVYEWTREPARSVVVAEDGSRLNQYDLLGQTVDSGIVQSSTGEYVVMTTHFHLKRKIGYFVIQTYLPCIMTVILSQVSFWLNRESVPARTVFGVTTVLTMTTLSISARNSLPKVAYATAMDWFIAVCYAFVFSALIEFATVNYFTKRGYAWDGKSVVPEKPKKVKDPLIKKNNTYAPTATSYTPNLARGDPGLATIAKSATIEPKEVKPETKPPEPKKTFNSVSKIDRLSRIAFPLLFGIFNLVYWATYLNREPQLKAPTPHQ
T1 sequence (P47870 whole entry): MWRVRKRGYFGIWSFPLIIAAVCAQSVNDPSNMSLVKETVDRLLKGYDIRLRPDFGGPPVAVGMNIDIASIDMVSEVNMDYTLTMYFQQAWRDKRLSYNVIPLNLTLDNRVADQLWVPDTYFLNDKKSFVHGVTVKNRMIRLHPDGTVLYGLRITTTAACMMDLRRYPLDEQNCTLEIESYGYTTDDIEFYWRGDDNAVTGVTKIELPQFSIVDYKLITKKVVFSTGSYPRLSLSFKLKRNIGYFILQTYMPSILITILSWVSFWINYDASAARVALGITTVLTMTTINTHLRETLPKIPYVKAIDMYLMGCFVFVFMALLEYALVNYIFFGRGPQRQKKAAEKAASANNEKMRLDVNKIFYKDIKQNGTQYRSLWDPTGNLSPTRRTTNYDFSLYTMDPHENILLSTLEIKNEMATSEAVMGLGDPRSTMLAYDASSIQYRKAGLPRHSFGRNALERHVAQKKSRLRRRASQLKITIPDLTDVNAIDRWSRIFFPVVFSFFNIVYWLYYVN
T1 sequence (P18507 whole entry): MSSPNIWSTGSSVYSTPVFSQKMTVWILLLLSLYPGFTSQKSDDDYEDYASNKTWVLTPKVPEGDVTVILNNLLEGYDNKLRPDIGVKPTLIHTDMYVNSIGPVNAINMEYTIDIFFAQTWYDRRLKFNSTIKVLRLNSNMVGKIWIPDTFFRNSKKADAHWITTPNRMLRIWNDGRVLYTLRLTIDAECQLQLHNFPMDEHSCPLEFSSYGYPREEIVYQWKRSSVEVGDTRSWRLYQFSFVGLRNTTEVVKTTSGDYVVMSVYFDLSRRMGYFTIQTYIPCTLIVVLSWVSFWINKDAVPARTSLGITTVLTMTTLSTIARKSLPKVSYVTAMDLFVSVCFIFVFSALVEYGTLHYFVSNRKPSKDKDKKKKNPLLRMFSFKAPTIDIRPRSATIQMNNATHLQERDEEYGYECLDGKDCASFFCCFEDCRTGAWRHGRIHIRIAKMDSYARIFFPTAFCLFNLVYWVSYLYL
Kind of experiment: Antagonist activity at human recombinant GABA A receptor alpha1beta2gamma2S expressed in HEK293 cells assessed as inhibition of GABA-induced current by patch clamp electrophysiology. Format: functional, cell-based.
Take `N=c1ccc(-c2ccc(OCc3ccccc3)cc2)nn1CCCC(=O)O`: the IC50 was 11 nM.
As to `COc1cccc(COc2ccc(-c3ccc(=N)n(CCCC(=O)O)n3)cc2)c1`, the concentration for half-maximal inhibition (IC50) is 7 nM.
Then `N=c1ccc(-c2ccc(OCc3cccc([N+](=O)[O-])c3)cc2)nn1CCCC(=O)O`, with 3 nM.
Turning to `C#CCOc1ccc(-c2ccc(=N)n(CCCC(=O)O)n2)cc1`, the half-maximal inhibitory concentration (IC50) was determined as 40 nM.
Take `COc1ccc(-c2ccc(=N)n(CCCC(=O)O)n2)cc1` [GABAZINE]: the concentration for half-maximal inhibition (IC50) was determined as 349 nM.
